Assay results published in US20170190671A1, “BIS(ARYL)CATECHOL DERIVATIVES AS HERBICIDES” (E I DU PONT DE NEMOURS AND COMPANY, priority 2014, published 2017).

Columns and labels:
Experiment in all cases: Test C preemergence
Assay type in all cases: in vivo
[1] = test system: giant foxtail (Setaria faberii); details: Setaria faberi, pre-emergence, 336 h, scale 0 to 100, read-out: Plant response rating, Foxtail, Giant
Outline: (§1)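 0-100 visual injury score (100 = complete control), assessed at 13-15 d after treatment against controls; surfactant-containing solvent formulation applied preemergence to seeded loam-sand soil or sprayed onto 1- to 4-leaf greenhouse plants.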

[2] = test system: Italian ryegrass (Lolium multiflorum); details: Lolium multiflorum, pre-emergence, 336 h, scale 0 to 100, read-out: Plant response rating, Ryegrass, Italian
Outline: as §1

[3] = test system: velvetleaf (Abutilon theophrasti); details: Abutilon theophrasti, pre-emergence, scale 0 to 100, read-out: Plant response rating, Velvetleaf
Outline: as §1

[4] = test system: large (Lg) crabgrass (Digitaria sanguinalis); details: Digitaria sanguinalis, pre-emergence, 336 h, scale 0 to 100, read-out: Plant response rating, Crabgrass, Large
Outline: as §1

[5] = test system: waterhemp (common waterhemp, Amaranthus rudis); details: Amaranthus tuberculatus, pre-emergence, scale 0 to 100, read-out: Plant response rating, Waterhemp
Outline: as §1

[6] = test system: ragweed (common ragweed, Ambrosia elatior); details: Ambrosia artemisiifolia, pre-emergence, 336 h, scale 0 to 100, read-out: Plant response rating, Ragweed
Outline: as §1

[7] = test system: winter wheat (Triticum aestivum); details: Triticum aestivum, pre-emergence, 336 h, scale 0 to 100, read-out: Plant response rating, Wheat
Outline: as §1

[8] = test system: morningglory (Ipomoea coccinea); details: Ipomoea, pre-emergence, 336 h, scale 0 to 100, read-out: Plant response rating, Morningglory
Outline: as §1

[9] = test system: blackgrass (Alopecurus myosuroides); details: Alopecurus myosuroides, pre-emergence, 336 h, scale 0 to 100, read-out: Plant response rating, Blackgrass
Outline: as §1

[10] = test system: corn (Zea mays); details: Zea mays, pre-emergence, 336 h, scale 0 to 100
Outline: as §1

[11] = test system: pigweed (Amaranthus retroflexus); details: Amaranthus retroflexus, pre-emergence, 336 h, scale 0 to 100, read-out: Plant response rating, Pigweed
Outline: as §1

[12] = test system: oilseed rape (Brassica napus); details: Brassica napus, pre-emergence, scale 0 to 100, read-out: Plant response rating, Oilseed Rape
Outline: as §1

[13] = test system: lambsquarters (Chenopodium album); details: Chenopodium album, pre-emergence, 336 h, scale 0 to 100, read-out: Plant response rating, Lambsquarters
Outline: as §1

[14] = test system: yellow nutsedge (Cyperus esculentus); details: Cyperus, pre-emergence, 336 h, scale 0 to 100, read-out: Plant response rating, Nutsedge, Yellow
Outline: as §1

[15] = test system: soybean (Glycine max); details: Glycine max, pre-emergence, scale 0 to 100, read-out: Plant response rating, Soybean
Outline: as §1

N#Cc1cccc(Oc2ncc(Cl)cn2)c1Oc1ncc(Br)cn1 [Compound 4, 2-[(5-bromo-2-pyrimidinyl)oxy]-3-[(5-chloro-2-pyrimidinyl)oxy]benzonitrile]
10%: pest or weed control at 16 g/ha ([1]; Preemergence, 16 g ai/ha) | pest or weed control at 31 g/ha ([6]; 31 g ai/ha, preemergence) | Corn plant response rating (crop injury, 0 = no effect, 100 = complete kill) at 62 g/ha ([10]; 62 g ai/ha, preemergence)
45%: pest or weed control at 62 g/ha ([2]; 62 g ai/ha, preemergence) | pest or weed control at 31 g/ha ([3]; 31 g ai/ha, preemergence) | pest or weed control at 16 g/ha ([5]; Preemergence, 16 g ai/ha)
75%: pest or weed control at 16 g/ha ([4]; Preemergence, 16 g ai/ha) | plant injury at 31 g/ha ([12]; 31 g ai/ha, preemergence) | pest or weed control at 16 g/ha ([13]; Preemergence, 16 g ai/ha)
50%: plant injury at 62 g/ha ([15]; 62 g ai/ha, preemergence)
55%: pest or weed control at 62 g/ha ([3]; 62 g ai/ha, preemergence) | pest or weed control at 62 g/ha ([8]; 62 g ai/ha, preemergence) | pest or weed control at 125 g/ha ([14]; 125 g ai/ha, preemergence)
5%: pest or weed control at 31 g/ha ([2]; 31 g ai/ha, preemergence) | pest or weed control at 16 g/ha ([3]; Preemergence, 16 g ai/ha) | pest or weed control at 62 g/ha ([6]; 62 g ai/ha, preemergence) | plant injury at 125 g/ha ([7]; 125 g ai/ha, preemergence) | pest or weed control at 16 g/ha ([8]; Preemergence, 16 g ai/ha) | Corn plant response rating (crop injury, 0 = no effect, 100 = complete kill) at 31 g/ha ([10]; 31 g ai/ha, preemergence) | pest or weed control at 16 g/ha ([11]; Preemergence, 16 g ai/ha) | plant injury at 16 g/ha ([15]; Preemergence, 16 g ai/ha)
95%: pest or weed control at 62 g/ha ([9]; 62 g ai/ha, preemergence) | pest or weed control at 125 g/ha ([9]; 125 g ai/ha, preemergence) | pest or weed control at 31 g/ha ([13]; 31 g ai/ha, preemergence) | plant injury at 125 g/ha ([15]; 125 g ai/ha, preemergence)
30%: pest or weed control at 31 g/ha ([9]; 31 g ai/ha, preemergence) | pest or weed control at 62 g/ha ([14]; 62 g ai/ha, preemergence) | plant injury at 31 g/ha ([15]; 31 g ai/ha, preemergence)
35%: pest or weed control at 31 g/ha ([8]; 31 g ai/ha, preemergence) | Corn plant response rating (crop injury, 0 = no effect, 100 = complete kill) at 125 g/ha ([10]; 125 g ai/ha, preemergence)
100%: pest or weed control at 62 g/ha ([1]; 62 g ai/ha, preemergence) | pest or weed control at 125 g/ha ([1]; 125 g ai/ha, preemergence) | pest or weed control at 125 g/ha ([3]; 125 g ai/ha, preemergence) | pest or weed control at 31 g/ha ([4]; 31 g ai/ha, preemergence) | pest or weed control at 62 g/ha ([4]; 62 g ai/ha, preemergence) | pest or weed control at 125 g/ha ([4]; 125 g ai/ha, preemergence) | pest or weed control at 31 g/ha ([5]; 31 g ai/ha, preemergence) | pest or weed control at 62 g/ha ([5]; 62 g ai/ha, preemergence) | pest or weed control at 125 g/ha ([5]; 125 g ai/ha, preemergence) | pest or weed control at 31 g/ha ([11]; 31 g ai/ha, preemergence) | pest or weed control at 125 g/ha ([11]; 125 g ai/ha, preemergence) | plant injury at 125 g/ha ([12]; 125 g ai/ha, preemergence) | pest or weed control at 125 g/ha ([13]; 125 g ai/ha, preemergence)
15%: plant injury at 16 g/ha ([12]; Preemergence, 16 g ai/ha)
90%: plant injury at 62 g/ha ([12]; 62 g ai/ha, preemergence)
0%: pest or weed control at 16 g/ha ([2]; Preemergence, 16 g ai/ha) | pest or weed control at 16 g/ha ([6]; Preemergence, 16 g ai/ha) | plant injury at 31 g/ha ([7]; 31 g ai/ha, preemergence) | plant injury at 62 g/ha ([7]; 62 g ai/ha, preemergence) | plant injury at 16 g/ha ([7]; Preemergence, 16 g ai/ha) | pest or weed control at 16 g/ha ([9]; Preemergence, 16 g ai/ha) | Corn plant response rating (crop injury, 0 = no effect, 100 = complete kill) at 16 g/ha ([10]; Preemergence, 16 g ai/ha) | pest or weed control at 31 g/ha ([14]; 31 g ai/ha, preemergence) | pest or weed control at 16 g/ha ([14]; Preemergence, 16 g ai/ha)
85%: pest or weed control at 62 g/ha ([13]; 62 g ai/ha, preemergence)
98%: pest or weed control at 31 g/ha ([1]; 31 g ai/ha, preemergence) | pest or weed control at 125 g/ha ([8]; 125 g ai/ha, preemergence)
70%: pest or weed control at 125 g/ha ([2]; 125 g ai/ha, preemergence) | pest or weed control at 125 g/ha ([6]; 125 g ai/ha, preemergence) | pest or weed control at 62 g/ha ([11]; 62 g ai/ha, preemergence)
